{"source": "patent US4327097A", "about": "“Novel penicillins” (Toyama Chemical Co., Ltd., priority 1974, dated 1982)", "key": {"[1]": {"system": "Pseudomonas aeruginosa I.F.O.", "test": "MIC, plate method, standard strains", "format": "cell-based", "conditions": "unit assumed; for MIC Pseudomonas aeruginosa I.F.C: Table 3, standard strain; for MIC Pseudomonas aeruginosa I.F.O.: Table 4, standard strain", "protocol": "(§1) The minimum inhibitory concentration (MIC) was determined by the plate method disclosed in \"Chemotherapy\" (Japan), Vol. 16, (1968), pages 98-99. The culture medium used was a Heart infusion agar (pH 7.4). The number of the cells per plate used in the inoculum was 10^4 (10^6 cells/ml)."}, "[2]": {"system": "Escherichia coli NIHJ", "test": "MIC, plate method, standard strains", "format": "cell-based", "conditions": "unit assumed; for MIC Esche--richin coil NIHJ: Table 3, standard strain; for MIC Escherichia coli NIHJ: Table 4, standard strain", "protocol": "as §1"}, "[3]": {"system": "Proteus vulgaris 3027", "test": "MIC, plate method, standard strains", "format": "cell-based", "conditions": "unit assumed", "protocol": "as §1"}, "[4]": {"system": "Staphylococcus aureus 209p", "test": "MIC, plate method, standard strains", "format": "cell-based", "conditions": "unit assumed", "protocol": "as §1"}, "[5]": {"system": "Klebsiella pneumoniae", "test": "MIC, plate method, standard strains", "format": "cell-based", "conditions": "unit assumed", "protocol": "as §1"}, "[6]": {"system": "β-lactamase, Pseudomonas aeruginosa GN 238", "test": "Resistant activity against β-lactamase, iodometric assay", "format": "biochemical", "conditions": "β-lactamase from Pseudomonas aeruginosa GN 238; Potassium Penicillin G = 100", "protocol": "(3) Resistant activity against β-lactamase, Pseudomonas aerugionsa GN 238:\nThe resistant activity of each compound against β-lactamase was measured in the manner described below.\nβ-Lactamase was prepared from Pseudomonas aeruginosa GN 238. This microorganism was cultured in 100 ml of a medium containing 2 g of yeast extract, 10 g of polypeptone, 2 g of glucose, 7 g of disodium hydrogen phosphate, 2 g of potassium dihydrogen phosphate, 1.2 g of ammonium sulfate and 0.4 g of magnesium sulfate, per liter, in a 500-ml Erlenmeyer flask for 6 hrs. at 37° C. with shaking. The resulting cells were collected by centrifugation (5,000 r.p.m.×10 min.), washed three times with 0.1 M phosphate buffer (pH 7.0). Subsequently, the cells were subjected to sonication (20 KHz, 20 min.) and then centrifuged at 15,000 r.p.m. for 60 min. By using the supernatant of enzyme fluid, the resistance of each compound against β-lactamase was determined by the iodometric assay method. Each numeral shown in Table 7 is a relative activity value calculated by assuming as 100 the activity of the control Potassium Penicillin G."}, "[7]": {"system": "Escherichia coli", "test": "MIC against clinical isolates", "format": "cell-based", "conditions": "Table 5-2, clinical isolate; unit assumed"}, "[8]": {"system": "Shigella sonnei", "test": "MIC against clinical isolates", "format": "cell-based", "conditions": "Table 5-5, clinical isolate; unit assumed", "protocol": "as §1\n(§2) MIC was determined in the same manner as in the preceding paragraph (1)."}, "[9]": {"system": "Shigella flexneri", "test": "MIC against clinical isolates", "format": "cell-based", "conditions": "Table 5-5, clinical isolate; unit assumed", "protocol": "as §1, §2"}, "[10]": {"system": "Klebsiella pneumoniae", "test": "MIC against clinical isolates", "format": "cell-based", "conditions": "Table 5-4, clinical isolate; unit assumed"}, "[11]": {"system": "Pseudomonas aeruginosa", "test": "MIC against clinical isolates", "format": "cell-based", "conditions": "Table 5-3, clinical isolate; unit assumed"}, "[12]": {"system": "Staphylococcus aureus", "test": "MIC against clinical isolates", "format": "cell-based", "conditions": "Table 5-1, clinical isolate; unit assumed"}, "[13]": {"conditions": "Table 3, standard strain, Heart infusion agar pH 7.4"}}}
{"compound": "CC1(C)SC2C(NC(=O)C(NC(=O)N3CCN(CCCl)C(=O)C3=O)c3ccccc3)C(=O)N2C1C(=O)O", "note": "(single isomer, unassigned) [Compound 44]", "values": [{"measurement": "MIC Pseudomonas aeruginosa I.F.C", "setting": "[1]", "result": 6.25, "unit": "mg/L"}, {"measurement": "MIC Esche--richin coil NIHJ", "setting": "[2]", "result": "< 1.57", "unit": "mg/L"}, {"measurement": "MIC Proteus vulgaris 3027", "setting": "[3]; Table 3, standard strain", "result": "< 1.57", "unit": "mg/L"}, {"measurement": "MIC Staphylococcus aureus 209p", "setting": "[4]; [13]", "result": "< 1.57", "unit": "mg/L"}, {"measurement": "MIC Klebsiella pneumoniae", "setting": "[5]; Table 3, standard strain", "result": "< 1.57", "unit": "mg/L"}]}
{"compound": "Cc1csc(SCC2=C(C(=O)O)N3C(=O)C(NC(=O)C(NC(=O)N4CCN(C)C(=O)C4=O)c4ccccc4)C3SC2)n1", "note": "(single isomer, unassigned) [compound 71]", "values": [{"measurement": "MIC Pseudomonas aeruginosa I.F.O.", "setting": "[1]", "result": 50, "unit": "mg/L"}, {"measurement": "MIC Escherichia coli NIHJ", "setting": "[2]", "result": "< 0.79", "unit": "mg/L"}, {"measurement": "MIC Proteus vulgaris 3027", "setting": "[3]; Table 4, standard strain", "result": "< 0.79", "unit": "mg/L"}, {"measurement": "MIC Staphylococcus aureus 209p", "setting": "[4]; Table 4, standard strain", "result": "< 0.79", "unit": "mg/L"}, {"measurement": "MIC Klebsiella pneumoniae", "setting": "[5]; Table 4, standard strain", "result": 1.56, "unit": "mg/L"}]}
{"compound": "CCN1CCN(C(=O)NC(C(=O)NC2C(=O)N3C(C(=O)O)=C(CSc4cnn[nH]4)CSC23)c2ccccc2)C(=O)C1=O", "note": "(single isomer, unassigned) [compound 75]", "values": [{"measurement": "MIC Pseudomonas aeruginosa I.F.O.", "setting": "[1]", "result": 50, "unit": "mg/L"}, {"measurement": "MIC Escherichia coli NIHJ", "setting": "[2]", "result": "< 0.4", "unit": "mg/L"}, {"measurement": "MIC Proteus vulgaris 3027", "setting": "[3]; Table 4, standard strain", "result": 12.5, "unit": "mg/L"}, {"measurement": "MIC Staphylococcus aureus 209p", "setting": "[4]; Table 4, standard strain", "result": 1.57, "unit": "mg/L"}, {"measurement": "MIC Klebsiella pneumoniae", "setting": "[5]; Table 4, standard strain", "result": 1.57, "unit": "mg/L"}]}
{"compound": "CCN1CCN(C(=O)NC(C(=O)NC2C(=O)N3C(C(=O)O)=C(COC)CSC23)c2ccccc2)C(=O)C1=O", "note": "(single isomer, unassigned) [compound 80]", "values": [{"measurement": "MIC Pseudomonas aeruginosa I.F.O.", "setting": "[1]", "result": 50, "unit": "mg/L"}, {"measurement": "MIC Escherichia coli NIHJ", "setting": "[2]", "result": "< 0.1", "unit": "mg/L"}, {"measurement": "MIC Proteus vulgaris 3027", "setting": "[3]; Table 4, standard strain", "result": 6.25, "unit": "mg/L"}, {"measurement": "MIC Staphylococcus aureus 209p", "setting": "[4]; Table 4, standard strain", "result": 0.79, "unit": "mg/L"}, {"measurement": "MIC Klebsiella pneumoniae", "setting": "[5]; Table 4, standard strain", "result": 3.13, "unit": "mg/L"}]}
{"compound": "Cn1nnnc1SCC1=C(C(=O)O)N2C(=O)C(NC(=O)C(NC(=O)N3CCN(CCO)C(=O)C3=O)c3ccc(O)cc3)C2SC1", "note": "(single isomer, unassigned) [compound 83]", "values": [{"measurement": "MIC Pseudomonas aeruginosa I.F.O.", "setting": "[1]", "result": 25, "unit": "mg/L"}, {"measurement": "MIC Escherichia coli NIHJ", "setting": "[2]", "result": "< 1.57", "unit": "mg/L"}, {"measurement": "MIC Proteus vulgaris 3027", "setting": "[3]; Table 4, standard strain", "result": "< 1.57", "unit": "mg/L"}, {"measurement": "MIC Staphylococcus aureus 209p", "setting": "[4]; Table 4, standard strain", "result": 1.57, "unit": "mg/L"}, {"measurement": "MIC Klebsiella pneumoniae", "setting": "[5]; Table 4, standard strain", "result": "< 1.57", "unit": "mg/L"}]}
{"compound": "CCCCCCCCN1CCN(C(=O)N[C@@H](C(=O)N[C@@H]2C(=O)N3[C@@H]2SC(C)(C)[C@@H]3C(=O)O)c2ccccc2)CC1=O", "note": "[Compound 30]", "values": [{"measurement": "Relative activity (%), resistant activity against β-lactamase", "setting": "[6]", "result": 3, "unit": "%"}]}
{"compound": "CCN1CCN(C(=O)N[C@@H](C(=O)N[C@@H]2C(=O)N3[C@@H]2SC(C)(C)[C@@H]3C(=O)O)c2ccccc2)C(=O)C1=O", "note": "[Compound 36]", "values": [{"measurement": "MIC Escherichia coli GN 3435", "setting": "[7]", "result": 1.57, "unit": "mg/L"}, {"measurement": "MIC Escherichia coli GN 3452", "setting": "[7]", "result": 3.13, "unit": "mg/L"}, {"measurement": "MIC Escherichia coli GN 3481", "setting": "[7]", "result": 3.13, "unit": "mg/L"}, {"measurement": "MIC Escherichia coli K-1", "setting": "[7]", "result": 3.13, "unit": "mg/L"}, {"measurement": "MIC Escherichia coli K-2", "setting": "[7]", "result": 3.13, "unit": "mg/L"}, {"measurement": "MIC Escherichia coli K-4", "setting": "[7]", "result": 1.57, "unit": "mg/L"}, {"measurement": "MIC Shigella sonnei JS 11232", "setting": "[8]", "result": 50, "unit": "mg/L"}, {"measurement": "MIC Shigella sonnei JS 11755", "setting": "[8]", "result": 3.13, "unit": "mg/L"}, {"measurement": "MIC Shigella flexneri JS 11215", "setting": "[9]", "result": 100, "unit": "mg/L"}, {"measurement": "MIC Shigella flexneri JS 11839", "setting": "[9]", "result": 3.13, "unit": "mg/L"}, {"measurement": "MIC Pseudomonas aeruginosa I.F.C", "setting": "[1]", "result": 6.25, "unit": "mg/L"}, {"measurement": "MIC Esche--richin coil NIHJ", "setting": "[2]", "result": "< 1.57", "unit": "mg/L"}, {"measurement": "MIC Proteus vulgaris 3027", "setting": "[3]; Table 3, standard strain", "result": "< 1.57", "unit": "mg/L"}, {"measurement": "MIC Staphylococcus aureus 209p", "setting": "[4]; [13]", "result": "< 1.57", "unit": "mg/L"}, {"measurement": "MIC Klebsiella pneumoniae", "setting": "[5]; Table 3, standard strain", "result": "< 1.57", "unit": "mg/L"}, {"measurement": "MIC Klebsiella pneumoniae GN 917", "setting": "[10]", "result": 6.25, "unit": "mg/L"}, {"measurement": "Relative activity (%), resistant activity against β-lactamase", "setting": "[6]", "result": 14, "unit": "%"}, {"measurement": "MIC Pseudomonas aeruginosa GN 82", "setting": "[11]", "result": 6.25, "unit": "mg/L"}, {"measurement": "MIC Pseudomonas aeruginosa GN 163", "setting": "[11]", "result": 6.25, "unit": "mg/L"}, {"measurement": "MIC Pseudomonas aeruginosa GN 221", "setting": "[11]", "result": 3.13, "unit": "mg/L"}, {"measurement": "MIC Pseudomonas aeruginosa GN 376", "setting": "[11]", "result": 6.25, "unit": "mg/L"}, {"measurement": "MIC Pseudomonas aeruginosa GN 383", "setting": "[11]", "result": 6.25, "unit": "mg/L"}, {"measurement": "MIC Pseudomonas aeruginosa GN 1091", "setting": "[11]", "result": 6.25, "unit": "mg/L"}, {"measurement": "MIC Staphylococcus aureus F-2", "setting": "[12]", "result": 3.13, "unit": "mg/L"}, {"measurement": "MIC Staphylococcus aureus F-3", "setting": "[12]", "result": 1.57, "unit": "mg/L"}, {"measurement": "MIC Staphylococcus aureus F-4", "setting": "[12]", "result": 6.25, "unit": "mg/L"}, {"measurement": "MIC Staphylococcus aureus MS 8588", "setting": "[12]", "result": 3.13, "unit": "mg/L"}, {"measurement": "MIC Staphylococcus aureus MS 8596", "setting": "[12]", "result": 3.13, "unit": "mg/L"}, {"measurement": "MIC Staphylococcus aureus MS 8684", "setting": "[12]", "result": 3.13, "unit": "mg/L"}, {"measurement": "MIC Staphylococcus aureus MS 8713", "setting": "[12]", "result": 6.25, "unit": "mg/L"}]}
